Test results: PubChem BioAssay AID2610 (Broad Institute, 2010)
Inconclusive results are not listed. The source made the active and inactive calls.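 Rule for the calls: active = EC50 no more than tenfold above the top concentration tested, with valid fit and all samples agreeing; inconclusive = flat fit at 30 to 70% inhibition, poor fit, or split samples; inactive = EC50 beyond tenfold the top concentration tested.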

System: BJeLR fibroblast viability, Alamar Blue fluorescence, 48 h
Test: BJeLR fibroblast growth inhibition, viability readout – cell-based, alamar blue fluorescence, 48 h, cherrypicked samples, dose response (AID 2610);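 note: BJ fibroblasts with hTERT plus SV40 large and small T and HRAS V12; EC50 for loss of viable cells so potency reflects cytotoxic compounds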

Structure (SMILES)	EC50
CCCC(=O)OCCNc1cc(Sc2nccn2C)c2nonc2c1[N+](=O)[O-]	2510 nM
COc1cccc2c1C(=O)c1c(O)c3c(c(O)c1C2=O)C[C@@](O)(C(=O)CO)C[C@@H]3O[C@H]1C[C@H](N)[C@H](O)[C@H](C)O1	< 104 nM
COc1cccc(CSc2nc3ccccc3cc2C=O)c1	111 nM
c1ccc2nc(-c3nc4ccccc4o3)ccc2c1	> 13300 nM (inactive)
Nc1nc(CCl)nc(Nc2cccc3ccccc23)n1	493 nM
CCOc1ccc(N=Cc2c(C)[nH]n(-c3nc4ccccc4[nH]3)c2=O)cc1	> 13300 nM (inactive)
Cc1cc(C)cc(NS(=O)(=O)c2ccc(-c3cnc(C4CC4)o3)cc2)c1	< 104 nM
CCN(CC)c1ccc(/C=N/NC(=O)c2ccc3nc[nH]c3c2)c(O)c1	1530 nM
COCCCN=C1NN=C(c2cc(C)n(Cc3ccco3)c2C)CS1	< 104 nM
Cc1ccc(C2=NN(C(=O)CCl)C(c3ccco3)C2)o1 (stereo unspecified)	1600 nM
CCOc1ccccc1C(=O)N1CCN(c2cccc(Cl)c2)CC1	< 104 nM
CC1CN(S(=O)(=O)c2ccc(C(=O)NCCCn3ccnc3)cc2)CC(C)O1 (stereo unspecified)	436 nM
CCOc1ccc(OCc2cccc(C(=O)O)c2)cc1	> 13300 nM (inactive)
COc1cc2c(c(OC)c1OC)-c1ccc(O)c(=O)cc1C(NC(C)=O)CC2 (stereo unspecified)	< 104 nM
COc1cc(OC)c(C2=NOC(C(=O)NCc3cccs3)C2)cc1Cl (stereo unspecified)	2320 nM
CC1=CC(=O)C=C(C)C1=NOS(=O)(=O)c1ccccc1	3010 nM
COc1cc(SC)ccc1C(=O)Nc1nc2ccccc2[nH]1	> 13300 nM (inactive)
COc1ccc(NC(=O)C(=O)NCC2CCCN2S(=O)(=O)c2ccc(C)cc2)cc1 (stereo unspecified)	< 104 nM
CC(=O)Nc1ccc(NC(=O)CN(c2cccc([N+](=O)[O-])c2)S(C)(=O)=O)cc1	1410 nM
C/C(=N\Nc1ccc2nncn2n1)c1ccccn1	1140 nM
O=C1/C(=C/c2ccncc2)CCC/C1=C\c1ccncc1	539 nM

Structure (SMILES)	EC50
COc1cc(OC)cc(C(=O)N[C@H](C(=O)Nc2nc3ccccc3[nH]2)C(C)C)c1	324 nM
CCCc1sc(N/N=C/c2ccccn2)nc1-c1ccc(F)cc1	1360 nM
Cc1cccc(NC2=NC(C)(C)N=C(N)N2)c1	> 13300 nM (inactive)
Cc1ccc(Nc2nc(N)nc(CCl)n2)c(C)c1	388 nM
COc1ccc(COC(=O)c2cc([N+](=O)[O-])ccc2N2CCOCC2)cc1F	< 104 nM
CC(C)c1cc(C(=O)N/N=C/C(Br)=C/c2ccccc2)n[nH]1	958 nM
C=C1C(=O)O[C@@H]2C[C@@H](C)[C@@H]3C=CC(=O)[C@@]3(C)[C@@H](OC(=O)CC(=O)O[C@H]3[C@@H]4C(=C)C(=O)O[C@@H]4C[C@@H](C)[C@@H]4C=CC(=O)[C@]43C)[C@H]12	< 41.7 nM
COc1ccc2nc(NC(=O)c3ccoc3C)sc2c1	> 13300 nM (inactive)
O=C(NCCCn1ccnc1)c1ccc(N2CCCCCC2)c([N+](=O)[O-])c1	6680 nM
CN(Cc1cnc2nc(N)nc(N)c2n1)c1ccc(C(=O)N[C@@H](CCC(=O)O)C(=O)O)cc1	> 13300 nM (inactive)
COc1ccc(N=C2S/C(=C\c3ccc(Cl)c([N+](=O)[O-])c3)C(=O)N2CCN(C)C)cc1	1370 nM
CCCCCCCN(C(=O)CCl)c1cccc(C)c1	429 nM
O=[N+]([O-])c1ccc(N=Nc2ncc[nH]2)cc1	2370 nM
Cc1cc(C)c2nc(C)cc(N/N=C/c3ccc(O)cc3)c2c1	575 nM
CCNC(=S)NNC(=O)c1cc(-c2ccc(OCC)cc2)nc2ccccc12	> 13300 nM (inactive)
O=C(NC(Nc1nc2ccc([N+](=O)[O-])cc2s1)(C(F)(F)F)C(F)(F)F)c1ccccc1Cl	427 nM
COC(=O)C[C@]1(C(=O)OC)CN(C#N)N(c2ccc(Cl)cc2)C12c1ccccc1-c1ccccc12	762 nM
Cc1ccc(C)c(NS(=O)(=O)c2ccc(-c3cnc(C4CC4)o3)cc2)c1	< 104 nM
Cc1cc2nc(/C=C/c3cccnc3)[nH]c2cc1C	< 104 nM
Cc1cccc(NS(=O)(=O)c2ccc(-c3cnc(C4CC4)o3)cc2)c1C	< 104 nM
